Results on 6 compounds are retold here after patent US3966732A, “Nitroimidazolyl pyrimidines” (Schering Aktiengesellschaft, priority 1972, dated 1976).

In one data set the test system is Trichomonas vaginalis. Nature of the data set: Minimum inhibitory concentration against Trichomonas vaginalis (own test). Type of data set: cell-based. The conditions noted are these: comparison with metronidazole.
In data set [1] the test system is trichomonads. The conditions noted are these: Lancini et al.; cited from earlier work.
Data set [2] concerns trichomonads. To be noted: Grunberg and Titsworth; cited from earlier work.
For data set [3] the following is noted: Grunberg and Titsworth; cited from earlier work.

In general, MIC refers to the lowest concentration found to suppress growth. High values mean a need for much substance, low ones inhibition by little substance.

In brackets after ≈: the same amount, converted by molar mass.

`Cc1nc(-c2ncc([N+](=O)[O-])n2C)nc2c1CCc1ccccc1-2` [2-(5-Nitro-1-methyl-2-imidazolyl)-4-methyl-5,6-dihydrobenzo[h]quinazoline] gave a minimal inhibitory concentration (MIC) with Trichomonas vaginalis of 0.1 µg/mL (≈ 0.311 µM).
Consider `O=[N+]([O-])c1ncc[nH]1` [azomycin, 2-nitroimidazole], for which the “effectiveness in vitro compared with metronidazole” value in the data set with trichomonads [1] is “no more effective in vitro than metronidazole”. Besides, in the data set on trichomonads [2], the “ED50 value (in words, versus metronidazole)” value was “considerably less favorable”. In data set [3], the “LD50 value (in words, versus metronidazole)” value is “considerably less favorable”.
In the data set with Trichomonas vaginalis, `Cc1cc(C)nc(-c2ncc([N+](=O)[O-])n2C)n1` [4,6-Dimethyl-2-(5-nitro-1-methyl-2-imidazolyl)-pyrimidine] had an MIC of 0.4 µg/mL (≈ 1.72 µM).
On the same count and under the same terms, next, `Cn1c([N+](=O)[O-])cnc1-c1nc(-c2cccs2)cc(C(F)(F)F)n1` [4-Trifluoromethyl-2-(5-nitro-1-methyl-2-imidazolyl)-6-(2-thienyl)-pyrimidin]: 0.2 µg/mL (≈ 0.563 µM).
Compound `Cc1ncc([N+](=O)[O-])n1CCO` [Metronidazole, 5-nitro-2-methyl-1-(2-hydroxyethyl)-imidazole] registered a minimal inhibitory concentration (MIC) with Trichomonas vaginalis of 1.6 µg/mL (≈ 9.35 µM).
On the same count and under the same terms, to `Cc1cc(-c2ccccc2)nc(-c2ncc([N+](=O)[O-])n2C)n1` [4-Methyl-6-phenyl-2-(5-nitro-1-methyl-2-imidazolyl)pyrimidine] belongs 0.2 µg/mL (≈ 0.677 µM).
